Measured values: publication PMC12386745, “Benzofuran Derivatives with Antimicrobial and Anti-Inflammatory Activities from Penicillium crustosum SCNU-F0046” (International Journal of Molecular Sciences, 2025)
In brackets after ≈: the same amount, converted by molar mass. Like-named read-outs stand apart in the source and are kept apart here.

Legend:
Colletotrichum musae = assay: Antimicrobial MIC, 96-well broth dilution; format: cell-based; details: tested range 0.78–100 μg/mL, 48 h at 27 °C, means of three parallel experiments; for MIC: 48 h, read-out: minimum inhibitory concentration (MIC)
From the text: (§1) In contrast, for fungal inhibition activity, aza-benzofuran compounds show lower activity than oxa-benzofuran compounds. […] In terms of antifungal activity, when compound 5 and 6 form hydroxyl groups at position C-6, their polarity […], making them more susceptible to penetrating fungal cell membranes through hydrophobic mechanisms.
(§2) The minimum inhibitory concentration (MIC) values of antimicrobial activity of compounds 1–4 against three different plant pathogenic […], including Penicillium italicum, Fusarium oxysporum and Colletotrichum musae, and three human pathogenic bacteria, including Salmonella typhimurium (ATCC 6539), Escherichia coli (ATCC 25922) and Staphylococcus aureus (ATCC 12598), were determined via serial dilution technique employing 96-well microtiter plates. In brief, the bacterial cell suspension was adjusted to an inoculum density of 5 × 10^5 cfu/mL by comparison with a MacFarland standard before use. The fungal thallus concentration was adjusted to 1 × 10^6 cfu/mL. The tested compounds in dimethyl sulfoxide (DMSO) were added to PDB/MH broth medium to obtain a series of final concentrations of 100, 50, 25, 12.5, 6.25, 3.13, 1.57, 0.78 μg/mL. DMSO and carbendazim/ciprofloxacin served as negative and positive controls, respectively. The antifungal plates were incubated for 48 h at 27 °C, and the antibacterial plates were incubated for 24 h at 27 °C. Ten microliters of resazurin dissolved in DMSO at 100 μg/mL was added to each well of the microplate, followed by incubation at 27 °C for 3 h. We determined the MIC values by observing color changes using the visual endpoint method. For each parallel experiment, three replicates were measured.

Fusarium oxysporum = assay: Antimicrobial MIC, 96-well broth dilution; format: cell-based; details: tested range 0.78–100 μg/mL, 48 h at 27 °C, means of three parallel experiments, read-out: minimum inhibitory concentration (MIC)
From the text: as §1, §2

Penicillium italicum = assay: Antimicrobial MIC, 96-well broth dilution; format: cell-based; details: tested range 0.78–100 μg/mL, 48 h at 27 °C, means of three parallel experiments, read-out: minimum inhibitory concentration (MIC)
From the text: as §1, §2

[1] = test system: LPS-stimulated RAW 264.7 cells; assay: Inhibition of NO production (Griess reagent) in LPS-stimulated macrophages; format: cell-based, mouse; details: 4 h pretreatment, 1 μg/mL LPS for 24 h, mean ± SD, three independent experiments
Description: (§3) The anti-inflammatory activities of compounds 1–4 were evaluated by assessing the inhibition of nitric oxide (NO) production in lipopolysaccharide (LPS)-stimulated murine macrophage RAW 264.7 cells. […] In addition, we also tested the cytotoxicity of compounds 1–4, and cytotoxicity was assessed independently of LPS stimulation.
The nitrite concentration in the culture medium was measured using the Griess reagent, as previously reported, with slight modifications. The mouse macrophage cell line RAW 264.7 cells were purchased from the Shanghai Institutes for Biological Sciences and cultured in DMEM (high-glucose) medium supplemented with 10% (v/v) fetal bovine serum, 100 μg·mL^−1 penicillin and streptomycin, and 10 mM HEPES at 37 °C in a 5% CO2 atmosphere. Cells were pretreated with different samples dissolved in serum-free culture medium containing 0.5% DMSO (10, 5, 2.5, 1.25, and 0.625 μM) for 4 h, followed by stimulation with 1 μg·mL^−1 LPS for 24 h. Then, 50 μL of cell culture medium was mixed with 100 μL of Griess reagent I and II and incubated at room temperature for 10 min with horizontal shaking, after which the absorbance at 540 nm was measured in a microplate reader. Indomethacin was used as a positive control and was purchased from Sigma-Aldrich (St. Louis, MI, USA) Co. Wells with DMSO were used as a negative control (final DMSO concentration was 0.1%). The NO production inhibition rate was calculated using the flowing formula: NO production inhibition rate (%) =LPS group−Compound group/LPS group−DMSO group×100
IC50 is the concentration of the compound that inhibits 50% of NO production relative to the LPS group. All assays were performed in triplicate. The inhibition rates were calculated and plotted versus test concentrations to afford the IC50 (±SD) for three independent tests. Data were analyzed using SPSS 26.0 software. p < 0.05 was considered statistically significant.

Cytotoxicity, MTT assay = format: cell-based; details: mouse
Description: as §3
Cell viability was evaluated using MTT (3-(4,5-Dimethylthiazol-2-yl)-2,5-diphenyltetrazolium bromide) assay. RAW 264.7 cells were seeded in 96-well plates at a density of 5 × 10^3 cells per well and incubated overnight. Cells were incubated with tested compounds (DMSO as solvent) at 37 °C for 72 h. Subsequently, 50 μL of MTT/medium solution (0.5 mg/mL) was added to each well, and the cells were incubated for 1 h at 37 °C. After removing the MTT/medium, 100 μL of DMSO was added to each well. The plate was shaken to dissolve the precipitate, and activity was measured at 540 nm using a microplate reader. Cell viability was calculated using the following formula: Cell viability/% = (Absorbance of treated cells − Absorbance of blank control)/(Absorbance of negative control − Absorbance of blank control) × 100. The half-maximal inhibitory concentration (IC50) was calculated with Origin 8 Pro.

[2] = test system: Escherichia coli (ATCC 25922); assay: Antimicrobial MIC, 96-well broth dilution; format: cell-based; details: ATCC25922, tested range 0.78–100 μg/mL, 24 h at 27 °C, means of three parallel experiments, read-out: minimum inhibitory concentration (MIC)
From the text: as §1, §2

[3] = test system: Salmonella typhimurium (ATCC 6539); assay: Antimicrobial MIC, 96-well broth dilution; format: cell-based; details: Salmonella enterica, 24 h, read-out: minimum inhibitory concentration (MIC)
From the text: as §1, §2

[4] = test system: Staphylococcus aureus (ATCC 12598); assay: Antimicrobial MIC, 96-well broth dilution; format: cell-based; details: read-out: minimum inhibitory concentration (MIC)
From the text: as §1, §2

[5] = Mus musculus, RAW264.7, RAW 264.7 cells
[6] = ATCC12598, tested range 0.78–100 μg/mL, 24 h at 27 °C, means of three parallel experiments
[7] = RAW 264.7 cells, MTT, 72 h, without LPS stimulation, read-out: Cytotoxicity (CC50)

Row | SMILES | MIC (Colletotrichum musae) [µg/mL] | MIC (Fusarium oxysporum) [µg/mL] | MIC (Penicillium italicum) [µg/mL] | IC50 [1, 5] [µM] | CC50 at 72 h (Cytotoxicity, MTT assay) [µM] | MIC [2] [µg/mL] | MIC [3] [µg/mL] | MIC [4, 6] [µg/mL] | MIC ([4]; ATCC12598, 24 h) [µg/mL] | IC50 ([1]; RAW 264.7 cells) [µM] | CC50 at 72 h (Cytotoxicity, MTT assay; [7]) [µM] | minimum inhibitory concentration (MIC) (Colletotrichum musae) [µg/mL]
1 | COC(=O)Nc1nc2ccccc2[nH]1 [Carbendazim, reference compound] | 0.78 (≈ 4.08 µM) | 1.56 (≈ 8.16 µM) | 0.78 (≈ 4.08 µM) |  |  |  |  |  |  |  |  | 
2 | Cc1ccc(-c2cc(C(F)(F)F)nn2-c2ccc(S(N)(=O)=O)cc2)cc1 [Celecoxib, reference compound] |  |  |  | 32.1 ± 1.7 | > 50 |  |  |  |  |  |  | 
3 | O=C(O)c1cn(C2CC2)c2cc(N3CCNCC3)c(F)cc2c1=O [Ciprofloxacin, reference compound] |  |  |  |  |  | 0.8 (≈ 2.41 µM) | 0.2 (≈ 0.604 µM) | 0.1 (≈ 0.302 µM) |  |  |  | 
4 | Cc1cc2ccc3cc(C(C)(C)O)oc3c2cn1 [Compound 1] | 50 (≈ 207 µM) | 50 (≈ 207 µM) | 50 (≈ 207 µM) | 17.3 |  | 25 (≈ 104 µM) | 12.5 (≈ 51.8 µM) |  | 12.5 (≈ 51.8 µM) | 17.3 ± 1.6 | > 50 | 
5 | Cc1cc2ccc3c(c2cn1)OC(C(C)(C)O)C3 (centres unmarked) [Compound 2] | 25 (≈ 103 µM) | 50 (≈ 206 µM) | 50 (≈ 206 µM) | 31.5 ± 2.3 |  | 50 (≈ 206 µM) | 50 (≈ 206 µM) | 25 (≈ 103 µM) |  |  | > 50 | 
6 | Cc1cc2ccc3c(c2cn1)O[C@@](O)(C(C)C)C3=O [Compound 3, TMC-120 C] |  |  |  |  |  |  |  |  |  |  | > 50 | 
7 | CC(C)=C1Oc2c(ccc3cc(C)ncc23)C1=O [Compound 4, TMC-120 B] |  |  |  |  |  |  |  |  |  |  | > 50 | 
8 | CC(C)(O)C1Cc2ccc(C=CC(=O)O)c(CO)c2O1 (centres unmarked) [Compound 5] | 12.5 to 25 (≈ 44.9 to 89.8 µM) | 50 (≈ 180 µM) | 12.5 (≈ 44.9 µM) |  |  | 50 (≈ 180 µM) | 50 (≈ 180 µM) | 50 (≈ 180 µM) |  |  |  | 25 (≈ 89.8 µM)
9 | CC(C)C1(O)Oc2c(ccc(CO)c2CO)C1=O (centres unmarked) [Compound 6] | 12.5 to 25 (≈ 49.6 to 99.1 µM) | 50 (≈ 198 µM) | 12.5 (≈ 49.6 µM) |  |  | 100 (≈ 396 µM) | 50 (≈ 198 µM) | 50 (≈ 198 µM) |  |  |  | 12.5 (≈ 49.6 µM)
